# Test results taken from patent US6656906B1, “Hybrid polypeptides with enhanced pharmacokinetic properties” (Trimeris, Inc., priority 1998, dated 2003).
# Legend:
# [1] = Rat pharmacokinetic studies, IV, fluorescence HPLC of plasma; type: in vivo, CD rats; conditions: IV, male CD rats
# Protocol: 250-300 g male CD rats, double jugular catheter, obtained from Charles River Laboratories were used. Peptides were injected in one jugular catheter in a volume of 200 μl of peptide solution (approximately 3.75 mg/ml), dosing solution concentration was determined using the Edelhoch method, (Edelhoch, 1967, Biochemistry 6:1948-1954) method and adjusted based on animal weight such that each animal received a dose of 2.5 mg/kg). Approximately 250-300 μl of blood was removed at predetermined time intervals (0, 15, 30 min and 1, 2, 4, 6, and 8 hours) and added to EDTA capiject tubes. Plasma was removed from pelleted cells upon centrifugation and either frozen or immediately processed for fluorescence HPLC analysis.
# 100 μl of sample plasma was added to 900 μl of precipitation buffer (acetonitrile, 1.0% TFA, detergent) resulting in precipitation of the majority of plasma proteins. Following centrifugation at 10,000 rpm for 10 min, 400 μl of the supernatant was removed and added to 600 μl of HPLC grade water. Serial dilutions were performed as dictated by concentration of peptide present in each sample in dilution buffer comprised of 40% precipitation buffer and 60% HPLC water. In addition to sample dilutions, serial dilutions of dosing solution were performed in buffer as well as in plasma and used to generate a standard curve relating peak area to known concentration of peptide. This curve was then used to calculate concentration of peptide in plasma taking into account all dilutions performed and quantity injected onto column.
# [2] = Single-dose administration to rodents (CSI, SC, IV), plasma pharmacokinetics; type: in vivo, Sprague-Dawley albino rats; conditions: for bioavailability / AUC(0-t) / AUC(0-inf) / Cmax / half-life / Tmax: rat, in vivo; for bioavailability: read-out: FR (%) relative bioavailability; for half-life: read-out: t1/2, terminal (converted)
# Protocol: T1249 was administered to Sprague-Dawley albino rats in a single dose administered by continuous subcutaneous infusion (SCI), subcutaneous (SC) injection or intravenous (IV) injection. Each treatment group consisted of nine rats per sex per group. […] One group received 50 mM carbonate-bicarbonate, pH 8.5, administered as a control. The peptides were given for 12 hours via a polyvinyl chloride/polyethylene catheter surgically implanted subcutaneously in the nape of the neck. […] The actual milligram amount of T1249 was calculated using the peptide content that was determined for the batch administrated.
# Endpoints for analysis included cageside observations (twice daily for mortality and moribundity), clinical observations, clinical laboratory parameters, body weight and necropsy. Blood samples were obtained by a sparse sampling technique over a 12 hour time period from three rats per sex per group at each of the following times: 0.5, 1, 2, 4, 6, 8, […], and 12 hours after dose administration. Sample analysis was performed using a PcAb ECLIA assay (Blackburn, G. et al., 1991, Clin. Chem. 37:1534-1539; Deaver, D., 1995, Nature 377:758).
# [3] = Plasma and lymphatic pharmacokinetic analysis after IV bolus; type: in vivo, rats; conditions: for clearance / AUC(0-inf) / Cmax / AUC(0-t) / half-life: rat, in vivo; for AUC(0-t): read-out: AUC(0-6h); for half-life: iv, IV bolus, read-out: t½, elimination (converted)
# Protocol: For plasma and lymphatic pharmacokinetic analysis of T1249 in rats, T1249 was prepared as a sterile solution in bicarbonate buffer and administered as a single dose, bolus intravenous injection into the lateral tail vain at a dose of […]. Blood was collected from the animal from an in-dwelling jugular catheter. Samples were collected immediately after dosing and at 5, 15, and 30 minutes, and 1, 2, 4, and 6 hours after drug administration. For the analysis of lymphatic fluids, samples were taken immediately before dosing and every 20 minutes for the first six hours after dosing. Lymphatic fluid was collected from a catheter placed directly into the thoracic lymphatic duct as previously described (Kirkpatrick and Silver, 1970, The Journal of Surgical Research 10:147-158).
# [4] = Penetration into cerebrospinal fluid; type: in vivo, rats; conditions: all measurable time points, single dose; below limit of detection
# [5] = Single-dose administration to primates (SC, IM, IV), plasma pharmacokinetics; type: in vivo, cynomolgus monkeys; conditions: for bioavailability / half-life / AUC(0-inf) / Cmax / Tmax / AUC(0-t): in vivo; for bioavailability: read-out: FR (%) bioavailability relative to intravenous administration; for half-life: read-out: t½,terminal (converted); for AUC(0-t): read-out: AUC(0-24)
# Protocol: A washout period of at least three days separated each dosing day. […] The actual milligram amount of test article was calculated using the peptide content that was determined for the batch administered.
# Endpoints for analysis included cageside observations, physical examinations and body weight. For the IV phase of the study, blood samples were collected into heparinized tubes at the following time points: immediately after dosing, 0.25, 0.5, 1.5, 3, 6, 12, and 24 hours after dosing. For the IM and SC phases of the study blood samples were collected in heparinized tubes from each animal at the following time points: 0.5, 1, 2, 3, 6, 12, and 24 hours after dosing. Plasma samples were prepared within one hour of collection and flash frozen in liquid nitrogen. Samples analysis was performed using a PcAb ECLIA assay (Blackburn, G. et al., 1991, Clin. Chem. 37:1534-1539; Deaver, D., 1995, Nature 377:758).
# [6] = cynomolgus monkey, IM (0.8 mg/kg)
# [7] = cynomolgus monkey, IV (0.8 mg/kg)
# [8] = cynomolgus monkey, SC (0.4 mg/kg)
# [9] = cynomolgus monkey, SC (0.8 mg/kg)
# [10] = cynomolgus monkey, SC (1.6 mg/kg)
structure (smiles),measurement,setting,value
CC[C@H](C)[C@H](NC(=O)[C@H](CCC(N)=O)NC(=O)[C@H](C)NC(=O)[C@H](CCC(N)=O)NC(=O)[C@H](CCC(=O)O)NC(=O)[C@H](CC(C)C)NC(=O)[C@H](CC(C)C)NC(=O)[C@H](C)NC(=O)[C@@H](NC(=O)[C@@H](NC(=O)[C@H](CCCCN)NC(=O)[C@H](CCC(N)=O)NC(=O)[C@H](CCC(=O)O)NC(=O)[C@H](Cc1c[nH]c2ccccc12)NC(=O)[C@H](CCC(=O)O)NC(=O)[C@H](CCC(N)=O)NC(=O)[C@H](Cc1c[nH]c2ccccc12)NC(C)=O)[C@@H](C)CC)[C@@H](C)O)C(=O)N[C@@H](CCC(N)=O)C(=O)N[C@@H](CCC(N)=O)C(=O)N[C@@H](CCC(=O)O)C(=O)N[C@@H](CCCCN)C(=O)N[C@@H](CC(N)=O)C(=O)N[C@@H](CCC(=O)O)C(=O)N[C@@H](Cc1ccc(O)cc1)C(=O)N[C@@H](CCC(=O)O)C(=O)N[C@@H](CC(C)C)C(=O)N[C@@H](CCC(N)=O)C(=O)N[C@@H](CCCCN)C(=O)N[C@@H](CC(C)C)C(=O)N[C@@H](CC(=O)O)C(=O)N[C@@H](CCCCN)C(=O)N[C@@H](Cc1c[nH]c2ccccc12)C(=O)N[C@@H](C)C(=O)N[C@@H](CO)C(=O)N[C@@H](CC(C)C)C(=O)N[C@@H](Cc1c[nH]c2ccccc12)C(=O)N[C@@H](CCC(=O)O)C(=O)N[C@@H](Cc1c[nH]c2ccccc12)C(=O)N[C@@H](Cc1ccccc1)C(N)=O [T1249],beta-phase half-life relative to T20,[1],nearly three times greater than T20
same,total AUC relative to T20,[1],nearly three times greater than T20
same,time to steady-state plasma peptide concentrations,[2]; CSI,approximately four hours
same,dose proportionality of Cpss and AUC,"[2]; CSI, 0.5 to 6.5 mg/kg",linear pharmacokinetics
same,dose dependence of exposure,[2]; SC injection,not dose-dependent
same,"changes in body weight, physical observations, hematology and clinical chemistry parameters or macroscopic pathology",[2]; all dose groups,no changes
same,dose dependence of pharmacokinetics,[2]; bolus IV injection,linear dose-dependent pharmacokinetics
same,bioavailability,[2]; SC 1.2 mg/kg relative to IV 1.5 mg/kg,73%
same,bioavailability,[2]; SC 15 mg/kg relative to IV 5 mg/kg,30%
same,AUC(0-t),"[2]; CSI, 0.5 mg/kg",7990 ng·h/mL
same,AUC(0-t),"[2]; CSI, 2.0 mg/kg",25900 ng·h/mL
same,AUC(0-t),"[2]; CSI, 6.5 mg/kg",120000 ng·h/mL
same,AUC(0-inf),[2]; IV 1.5 mg/kg,47100 ng·h/mL
same,AUC(0-t),[2]; IV 1.5 mg/kg,45600 ng·h/mL
same,Cmax,[2]; IV 1.5 mg/kg,15700 ng/mL
same,half-life,[2]; IV 1.5 mg/kg,2.46 h
same,AUC(0-inf),[2]; IV 5.0 mg/kg,120000 ng·h/mL
same,AUC(0-t),[2]; IV 5.0 mg/kg,118000 ng·h/mL
same,Cmax,[2]; IV 5.0 mg/kg,46300 ng/mL
same,half-life,[2]; IV 5.0 mg/kg,1.86 h
same,AUC(0-inf),[2]; SC 1.2 mg/kg,27600 ng·h/mL
same,AUC(0-t),[2]; SC 1.2 mg/kg,27000 ng·h/mL
same,Cmax,[2]; SC 1.2 mg/kg,6370 ng/mL
same,Tmax,[2]; SC 1.2 mg/kg,1.09 h
same,half-life,[2]; SC 1.2 mg/kg,2.02 h
same,AUC(0-inf),[2]; SC 15 mg/kg,110000 ng·h/mL
same,AUC(0-t),[2]; SC 15 mg/kg,107000 ng·h/mL
same,Cmax,[2]; SC 15 mg/kg,21500 ng/mL
same,Tmax,[2]; SC 15 mg/kg,1.88 h
same,half-life,[2]; SC 15 mg/kg,2 h
same,time to equilibration of lymphatic system with the plasma reservoir,[3]; after IV administration,within approximately one hour
same,clearance,[3]; Lymph,0.192 mL/min
same,AUC(0-inf),"[3]; Lymph, averages exclude Rat #1",449000 ng·h/mL
same,Cmax,"[3]; Lymph, averages exclude Rat #1",155000 ng/mL
same,AUC(0-t),"[3]; Lymph, averages exclude Rat #1",411000 ng·h/mL
same,AUC(0-inf),"[3]; Lymph, averages include Rat #1",390000 ng·h/mL
same,Cmax,"[3]; Lymph, averages include Rat #1",133000 ng/mL
same,AUC(0-t),"[3]; Lymph, averages include Rat #1",348000 ng·h/mL
same,AUC(0-inf),[3]; Plasma,598000 ng·h/mL
same,Cmax,[3]; Plasma,291000 ng/mL
same,clearance,[3]; Plasma,0.13 mL/min
same,AUC(0-t),[3]; Plasma,506000 ng·h/mL
same,half-life,[3]; Lymph,1.3 ± 0.27 h
same,half-life,[3]; Plasma,2.6 ± 0.41 h
same,concentration in cerebrospinal fluid (CSF),[4],< 2.0 ng T1249/ml CSF
same,"t½,terminal",[5]; IM (0.8 mg/kg),5.57 h
same,"t½,terminal","[5]; IV (0.8 mg/kg), 0.8 mg/kg",5.35 h
same,"t½,terminal","[5]; SC (0.8 mg/kg), 0.8 mg/kg",4.83 h
same,linearity of pharmacokinetics,"[5]; SC administration, 0.4-1.6 mg/kg",linear pharmacokinetics
same,level at 24 h,"[5]; both sexes, cynomolgus monkey, plasma, 24 hours after SC and IV administration, read-out: quantifiable plasma levels at 24 hours",> 500 ng/mL
same,bioavailability,"[5]; cynomolgus monkey, 0.8 mg/kg, IM (0.8 mg/kg)",~64%
same,bioavailability,"[5]; cynomolgus monkey, 0.8 mg/kg, SC (0.8 mg/kg)",~92%
same,half-life,"[5]; cynomolgus monkey, im, 0.8 mg/kg, IM (0.8 mg/kg)",5.6 h
same,half-life,"[5]; cynomolgus monkey, iv, 0.8 mg/kg, IV (0.8 mg/kg)",5.4 h
same,half-life,"[5]; cynomolgus monkey, sc, 0.4 mg/kg, SC (0.4 mg/kg)",6.23 h
same,half-life,"[5]; cynomolgus monkey, sc, 0.8 mg/kg, SC (0.8 mg/kg)",4.8 h
same,half-life,"[5]; cynomolgus monkey, sc, 1.6 mg/kg, SC (1.6 mg/kg)",5.55 h
same,AUC(0-inf),[5]; [6],59500 ng·h/mL
same,Cmax,[5]; [6],6370 ng/mL
same,Tmax,[5]; [6],2.32 h
same,AUC(0-t),[5]; [6],56400 ng·h/mL
same,AUC(0-inf),[5]; [7],92500 ng·h/mL
same,Cmax,[5]; [7],26700 ng/mL
same,AUC(0-t),[5]; [7],87400 ng·h/mL
same,AUC(0-inf),[5]; [8],40900 ng·h/mL
same,Cmax,[5]; [8],3170 ng/mL
same,Tmax,[5]; [8],3.97 h
same,AUC(0-t),[5]; [8],37500 ng·h/mL
same,AUC(0-inf),[5]; [9],85300 ng·h/mL
same,Cmax,[5]; [9],6850 ng/mL
same,Tmax,[5]; [9],4.58 h
same,AUC(0-t),[5]; [9],8120 ng·h/mL
same,AUC(0-inf),[5]; [10],181000 ng·h/mL
same,Cmax,[5]; [10],13300 ng/mL
same,Tmax,[5]; [10],4.72 h
same,AUC(0-t),[5]; [10],168000 ng·h/mL
